Test results reported in patent publication US8367659B2, “Oxazinyl isoflavonoid compounds, medicaments and use” (Marshall Edwards, Inc., priority 2007, dated 2013).

Assays:
CP70 = assay: Anti-cancer activity, CP70 ovarian cancer cells (MTT); format: cell-based; settings: 120 h, 5 days
[1] = tested on: Rabbit kidney (RK-13) cells; assay: Toxicity to normal cells, rabbit kidney (RK-13) cells; format: cell-based; settings: Oryctolagus cuniculus, normal, non-transformed cells, read-out: IC50 μM, RK Rabbit Kidney
Procedure: (§1) IC50 values were determined for each cell line. Cells were seeded in 96-well plates at an appropriate cell density as determined from growth kinetics analysis and cultured for 5 days in the absence and presence of the test compounds. Cell proliferation was assessed after the addition of 20 μl of 3-4,5 dimethylthiazol-2,5-diphenyl tetrazolium bromide (MTT, 2.5 mg/ml in PBS, Sigma) for 3-4 hrs at 37° C. according to manufacturer's instructions. IC50 values were calculated from semi-log plots of % of control proliferation on the y-axis against log dose on the x-axis.
(§2) The neonatal foreskin fibroblasts (NFF) were a gift from Dr. Peter Parsons (Queensland Institute of Medical Research). Rabbit kidney (RK-13) cells were obtained from Miller Whalley (Macquarie University). Both cell lines were cultured in RPMI supplemented with 10% FCS(CSL, Australia), penicillin (100 U/ml), streptomycin ([…]), L-glutamine (2 mM) and sodium bicarbonate (1.2 g/L), and cultured at 37° C. in a humidified atmosphere of 5% CO2. IC50 values were determined as described above.

[2] = tested on: NO synthesis in RAW 264.7 murine macrophages; assay: LPS-induced NO synthesis in RAW 264.7 murine macrophages (Griess); format: cell-based, mouse; settings: 10 μM; relative to vehicle alone; FIG. 6
Procedure: The mouse macrophage cell line RAW 264.7 was cultured in DMEM supplemented with foetal calf serum (FCS), […] glutamine and 50 U/ml penicillin/streptomycin. Cells were treated with either test compound (in 0.025% DMSO) or vehicle alone, and added one hour before 50 ng/ml LPS. After incubation for 24 h, culture media was collected for PGE2 or TXB2 measurement by ELISA (Cayman Chemical), and TNFα measurement using an ELISA (Becton Dickinson). Nitrite concentration is a quantitative indicator of NO production and was determined by the Griess Reaction. Briefly, 100 μL of Griess reagent was added to 50 μL of each supernatant in duplicate. The absorbance at 550 nm was measured (Molecular Devices, SpectraMax 250 microplate spectrophotometer, CA, USA), and nitrite concentrations were determined against a standard curve of sodium nitrite. The percentage nitrite inhibition was calculated as: [100−(nitrite concentration of sample/nitrite of vehicle control LPS cells)×100]. Results Test compounds were examined a concentration of 10 μM. […] Consequently, to assess the effect of test compounds on various analytes, cell viability was taken into consideration with the use of the formula: Actual effect of test compound=measured effect−(effect on cell viability×measured effect)

MM200 = assay: Anti-cancer activity, MM200 melanoma cells (MTT); format: cell-based; settings: for IC50: 120 h, 5 days, MTT
[3] = tested on: neonatal foreskin fibroblasts (NFF); assay: Toxicity to normal cells, neonatal foreskin fibroblasts; format: cell-based; settings: Fibroblast; normal, non-transformed cells; read-out: IC50 μM, NFF Fibroblast
Procedure: as §1, §2

[4] = Free radical scavenging with DPPH; settings: DPPH, 20 minutes, absorbance 517 nm; Table 4; read-out: Free radical scavenging ability EC50
Procedure: The antioxidant (free radical trapping) activity of test compounds was assessed using the stable free radical compound 2,2-diphenyl-1-picrylhydrazyl (DPPH). A stock solution of DPPH was prepared at a concentration of […] in ethanol and mixed for 10 minutes prior to use. Test compounds at a concentration of 100 μM were reacted with DPPH for, 20 minutes, alter which time the absorbance at 517 nm was determined. Initial screening of was done at 100 μM. The change in absorbance at 517 nm was compared to a reagent blank (DPPH with ethanol alone). […] The IC50 values were estimated as the concentration of test compound that caused a 0.6 change in absorbance (with 1.2 absorbance units representing total scavenging of the DPPH radical).
The antioxidant (free radical trapping) activity of test compounds was assessed using the stable free radical compound 2,2-diphenyl-1-picrylhydrazyl (DPPH). A stock solution of DPPH was prepared […] in ethanol and mixed for 10 minutes prior to use. Initial screening of test compound at a concentration of 100 μM was reacted with DPPH for 20 minutes, after which time the absorbance at 517 nm was determined. The change in absorbance was compared to a reagent blank (DPPH with ethanol alone). […] The IC50 value was estimated as the concentration of test compound that causes a 0.6 change in absorbance (with 1.2 absorbance units representing total scavenging of the DPPH radical).

HPAC = assay: Anti-cancer activity, HPAC pancreatic cancer cells (MTT); format: cell-based; settings: Homo sapiens, 120 h, 5 days
[5] = tested on: human umbilical vein smooth muscle cells (HUVSMC); assay: Proliferation of human umbilical vein smooth muscle cells (MTT); format: cell-based; settings: 10 μM; 10% FCS, 5 days; FIG. 8
Procedure: The effect of test compounds on human umbilical vein smooth muscle cells (HUVSMC) was examined. Cells were seeded into 96 well plates at a low seeding rate of 1.6×10^3 cells per well, and allowed to attach for 24 hours. The cells were then washed twice with medium without FCS and incubated in medium without FCS for 20 hours to serum starve them. Analogue was prepared in medium without FCS at 20 μM and added to the plates and incubated for one hour. Final analogue concentration was therefore 10 μM. The cells were then stimulated by adding medium +20% FCS, to give a final FCS concentration of 10%. The cells were incubated until the control cells i.e. those with FCS and no compound, were just confluent (5 days). An MTT assay was performed, and difference in absorbance in analogue treated cells from the control was calculated using the formula: test/control*100−100. Results
The effect of test compounds on human umbilical vein smooth muscle cells (HUVSMC), was examined. Cells, tissue explants from a neonate (HRI—passage 2), were seeded into 96 well plates at 1×10^3 cells per well, and allowed to attach for 24 hours. They were then washed twice and incubated in medium without foetal calf serum (FCS) for 24-48 hours to serum-starve them. Test compounds were prepared in medium without FCS and added to the plates and incubated for one hour. Medium with FCS was added to give a final concentration of 10% and the plates incubated for 4-5 days until the controls were just confluent.

[6] = target: T1, GAL4-PPARγ fusion protein (Homo sapiens, UniProt P37231); assay: PPARγ activity in transfected HEK293 cells (beta-lactamase reporter); format: cell-based; settings: FIG. 13: 1 μM
T1 construct: host or cells: HEK293 (human embryonic kidney), stably transfected
T1 sequence (P37231 238-503 limits assumed): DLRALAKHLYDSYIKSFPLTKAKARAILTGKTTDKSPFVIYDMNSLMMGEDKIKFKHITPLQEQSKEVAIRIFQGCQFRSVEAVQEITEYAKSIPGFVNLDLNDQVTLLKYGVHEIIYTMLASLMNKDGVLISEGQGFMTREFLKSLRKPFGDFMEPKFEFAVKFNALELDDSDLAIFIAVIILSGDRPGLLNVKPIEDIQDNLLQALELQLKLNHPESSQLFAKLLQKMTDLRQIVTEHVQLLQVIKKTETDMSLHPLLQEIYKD
T1 sequence (P04386 1-147 partner limits assumed): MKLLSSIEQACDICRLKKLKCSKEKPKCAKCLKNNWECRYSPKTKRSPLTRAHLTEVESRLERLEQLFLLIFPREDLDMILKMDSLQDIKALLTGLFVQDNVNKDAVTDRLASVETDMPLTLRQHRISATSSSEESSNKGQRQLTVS
Procedure: Human HEK293 cells, stably transfected with the PPARγ ligand binding domain fused with the DNA binding domain of the GAL4 protein (GAL4-PPARγ fusion protein), produce beta-lactamase when incubated with PPARγ ligands. Transfected human kidney embryonic cells (Invitrogen Inc., Carlsbad, Calif.) were seeded onto matrigel in 96-well plates and allowed to attach overnight. The following day, vehicle alone (DMSO) or test compound at 1, 5 and 10 μM was added at varying concentrations to cells and incubated for 16-18 hours. Cells were then loaded with a FRET-based fluorescent substrate to assess beta-lactamase activity. Cells were protected from light, and incubated at room temperature for 2 h. Plates were read on a fluorescence plate reader with an excitation wavelength of 409 nm and emission wavelengths of 460 nm and 530 nm. Results were expressed as a ratio of these two wavelengths after the background (cell-free control wells) had been subtracted. PPARγ activity was thus determined by measuring beta-lactamase activity as assessed by a fluorescent product to substrate ratio.

[7] = tested on: TXB2 synthesis in RAW 264.7 murine macrophages; assay: LPS-induced TXB2 synthesis in RAW 264.7 murine macrophages; format: cell-based, mouse; settings: 10 μM; relative to vehicle alone; FIG. 4
Procedure: (§3) The mouse macrophage cell line RAW 264.7 was cultured in DMEM supplemented with foetal calf serum (FCS), […] glutamine and 50 U/ml penicillin/streptomycin. Cells were treated with either test compound (in 0.025% DMSO) or vehicle alone, and added one hour before 50 ng/ml LPS. After incubation for 24 h, culture media was collected for PGE2 or TXB2 measurement by ELISA (Cayman Chemical), and TNFα measurement using an ELISA (Becton Dickinson). Test compounds were examined a concentration of 10 μM. […] Consequently, to assess the effect of test compounds on various analytes, cell viability was taken into consideration with the use of the formula: Actual effect of test compound=measured effect−(effect on cell viability×measured effect)

[8] = tested on: PGE2 synthesis in RAW 264.7 murine macrophages; assay: LPS-induced PGE2 synthesis in RAW 264.7 murine macrophages; format: cell-based, mouse; settings: 10 μM; relative to vehicle alone; FIG. 3
Procedure: as §3

cancer cell lines = assay: Anti-cancer activity, cancer cell lines tested as a group (MTT); format: cell-based; settings: CP70, HPAC and MM200

SMILES | IC50 (CP70) | IC50 (MM200) | EC50 [4] | IC50 (HPAC) | PPARγ activation, increase in beta-lactamase activity over media only control [6] | IC50 [1] | mean change of LPS-induced NO synthesis [2] | toxicity to the MM200 melanoma cell line (MM200) | IC50 [3] | effect on proliferation of HUVSMCs induced by FCS [5] | mean change of LPS-induced TXB2 synthesis [7] | mean change of LPS-induced PGE2 synthesis [8] | activity against CP70, HPAC and MM200 cell lines (cancer cell lines)
CCCN1COc2c(cc3c(c2C)OCC(c2ccc(OC)c(OC)c2)=C3)C1 [Compound 14, 7-(3,4-Dimethoxyphenyl)-10-methyl-3-propyl-2,3,4,8-tetrahydrochromeno[6,7-e][1,3]oxazine] |  |  |  |  |  |  | greatest inhibition |  |  |  | greatest inhibition | greatest inhibition | 
O=[N+]([O-])c1cccc(N2COc3cc4c(cc3C2)C=C(c2ccc(O)cc2)CO4)c1 [Compound 23, 4-(3-(3-Nitrophenyl)-2,3,4,8-tetrahydrochromeno[6,7-e][1,3]oxazin-7-yl)phenol] |  |  | 27 µM |  | PPARγ agonist activity |  | greatest inhibition |  |  |  | greatest inhibition | greatest inhibition | 
COc1ccc(C2=C(c3ccc(O)cc3)COc3cc4c(cc32)CN(Cc2ccc(Cl)cc2)CO4)cc1 [Compound 24, 4-(3-(4-Chlorobenzyl)-6-(4-methoxyphenyl)-2,3,4,8-tetrahydrochromeno[6,7-e][1,3]oxazin-7-yl)-phenol] | 8.6 µM | 14.6 µM | 24 µM | 6.83 µM |  |  | greatest inhibition |  |  |  | greatest inhibition | greatest inhibition | active

Now from value to compound, other results behind:

IC50 (CP70) | IC50 (MM200) | EC50 [4] | IC50 (HPAC) | PPARγ activation, increase in beta-lactamase activity over media only control [6] | SMILES | IC50 [1] | mean change of LPS-induced NO synthesis [2] | toxicity to the MM200 melanoma cell line (MM200) | IC50 [3] | effect on proliferation of HUVSMCs induced by FCS [5] | mean change of LPS-induced TXB2 synthesis [7] | mean change of LPS-induced PGE2 synthesis [8] | activity against CP70, HPAC and MM200 cell lines (cancer cell lines)
30.7 ± 22 µM | 8.9 ± 0.1 µM | 20 µM | 32.2 µM |  | CCCN1COc2cc3c(cc2C1)C=C(c1ccc(O)cc1)CO3 [Compound 3, 4-(3-Propyl-2,3,4,8-tetrahydrochromeno[6,7-e][1,3]oxazin-7-yl)phenol] | 4.8 µM | greatest inhibition | selectively toxic | 56.2 ± 12.6 µM |  |  |  | 
9.98 ± 0.5 µM | 36.3 ± 6 µM | 22.5 µM | 48.8 µM | PPARγ agonist activity | Oc1ccc(C2=Cc3cc4c(cc3OC2)OCN(c2ccccc2)C4)cc1 [Compound 7, 4-(3-Phenyl-2,3,4,8-tetrahydrochromeno[6,7-e][1,3]oxazin-7-yl)phenol] | 56.6 µM | greatest inhibition |  | 48.8 ± 12.2 µM | significantly inhibited the proliferation |  |  | 
